How the values were obtained:
PI3Kβ [1] = target: T1, PI3Kβ (Homo sapiens, UniProt P42338); experiment: Biochemical assay of PI3K potency and selectivity using 20 μM ATP, Beta; settings: for Beta/Delta Ratio / remaining activity at 100 µM: 20 μM ATP; for Beta/Delta Ratio: ratio of IC50 values, > = hypothetical ratio with 100 μM substituted for the missing IC50; for remaining activity at 100 µM: read-out: Beta: percent activity remaining at 100 μM, 100 μM compound did not inhibit by at least 50%
T1 construct: His tag (pFastbac HTa vector) (N); FLAG (N); made in house; host or cells: Sf21 insect cells (baculovirus)
In short: (§1)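 Lipid-kinase radiometric assay with γ-[32P]ATP (20 μM ATP) on PIP2/PS liposomes in 20 mM HEPES pH 7.4; the 3× substrate mix held […] and 6 μM liposomes.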

PI3Kγ [2] = target: T2, PI3Kγ (Homo sapiens, UniProt P48736); experiment: Biochemical assay of PI3K potency and selectivity using 20 μM ATP, Gamma; settings: for Gamma/Delta Ratio: ratio of IC50 values
T2 construct: His tag (pFastbac HTb vector) (N); FLAG (N); made in house; host or cells: Sf21 insect cells (baculovirus)

PI3Kα = target: T3, PI3Kα (Homo sapiens, UniProt P42336); experiment: Biochemical assay using 200 μM ATP, Alpha
T3 construct: His tag (pFastbac HTb vector) (N); FLAG; made in house; host or cells: Sf21 insect cells (baculovirus)

PI3Kβ [3] = target: T1, PI3Kβ; experiment: Biochemical assay using 200 μM ATP, Beta
PI3Kγ [4] = target: T2, PI3Kγ; experiment: Biochemical assay using 200 μM ATP, Gamma
Experimental: PI3Kδ catalyzes a phosphotransfer from γ-[^32P]ATP to PIP2/PS liposomes at the D3′ position of the PIP2 lipid inositol ring. This reaction is MgCl2 dependent and is quenched in high molarity potassium phosphate buffer pH 8.0 containing 30 mM EDTA. […] The reaction products (and all unlabelled products) are transferred to a 96-well, prewetted PVDF filter plate, filtered, and washed in high molarity potassium phosphate. Scintillant is added to the dried wells and the incorporated radioactivity is quantitated.
This dilution established a final concentration of 200 μM ATP in the reaction volume. The reaction was stopped with 150 μL quench buffer (1.0 M potassium phosphate pH 8.0, 30 mM EDTA). A portion of the quenched solution (180 μL) was then transferred to a PVDF filter plate (Millipore # MAIP NOB prewetted with sequential 200 μL washes of 100% methanol, water, and finally 1.0 M potassium phosphate pH 8.0 wash buffer).
The PVDF filter plate was aspirated under moderate vacuum (2-5 mm Hg), washed with 5×200 μL of wash buffer, and then dried by aspiration. The filter was subsequently blotted, allowed to air dry completely, and inserted into a Wallac counting cassette with 50 μL of Ecoscint scintillation cocktail added per well.
Subsequent selectivity assays were done similarly using the same 3× substrate stocks except they contained 0.05 mCi/mL γ[^32P]ATP and 3 mM PIP2. Subsequent selectivity assays also used the same 3× enzyme stocks, except they now contained 3 nM of any given PI3K isoform.
For all selectivity assays, the test compounds were weighed out and dissolved into 10-50 mM stocks in 100% DMSO (depending on their respective solubilities) and stored at −20° C. […] From these dilutions, 20 μL was added into the assay wells alongside water blanks used for the enzyme (positive) control and the no enzyme (background) control.
This selectivity protocol is identical to that described above, except the 3× stock ATP concentration was 600 μM.

human neutrophils = experiment: Elastase exocytosis from neutrophils (fMLP-induced); format: cell-based; settings: for EC50: neutrophil (PMN) elastase release
In short: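 Human blood neutrophils (Ficoll-Hypaque) treated with compound or DMSO, then stimulated 90 min at 37 °C with 1 μM fMLP plus 0.01 mg/mL cytochalasin B, 1.0 μM NaN3 and 5 μg/mL L-methionine. Supernatant elastase read at 410 nm over 2 h on MeO-suc-AAPV-pNA, normalized to uninhibited; EC50 in μM.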

T cell proliferation = experiment: Stimulated T cell proliferation (Mouse TCE Stim, Table 4); format: cell-based; settings: stimulated T cell proliferation, read-out: Mouse TCE Stim (EC50)
PI3Kδ [5] = target: T4, PI3Kδ (Homo sapiens, UniProt O00329, S253N); experiment: Biochemical assay using 200 μM ATP, Delta;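 note: radiometric filter-binding assay: PI3Kδ transfers ³²P from γ-[³²P]ATP onto PIP2/PS liposomes, counted by scintillation, enzyme-only wells as positive control, no-enzyme wells as background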
PI3Kδ [6] = target: T4, PI3Kδ; experiment: Biochemical assay of PI3K potency and selectivity using 20 μM ATP, Delta; design: His tag (pFastbac HTb vector) (N); FLAG; made in house; host or cells: Sf21 insect cells (baculovirus)
In short: as §1

[7] = 20 μM ATP, read-out: Delta IC50

T2 sequence (P48736 whole entry): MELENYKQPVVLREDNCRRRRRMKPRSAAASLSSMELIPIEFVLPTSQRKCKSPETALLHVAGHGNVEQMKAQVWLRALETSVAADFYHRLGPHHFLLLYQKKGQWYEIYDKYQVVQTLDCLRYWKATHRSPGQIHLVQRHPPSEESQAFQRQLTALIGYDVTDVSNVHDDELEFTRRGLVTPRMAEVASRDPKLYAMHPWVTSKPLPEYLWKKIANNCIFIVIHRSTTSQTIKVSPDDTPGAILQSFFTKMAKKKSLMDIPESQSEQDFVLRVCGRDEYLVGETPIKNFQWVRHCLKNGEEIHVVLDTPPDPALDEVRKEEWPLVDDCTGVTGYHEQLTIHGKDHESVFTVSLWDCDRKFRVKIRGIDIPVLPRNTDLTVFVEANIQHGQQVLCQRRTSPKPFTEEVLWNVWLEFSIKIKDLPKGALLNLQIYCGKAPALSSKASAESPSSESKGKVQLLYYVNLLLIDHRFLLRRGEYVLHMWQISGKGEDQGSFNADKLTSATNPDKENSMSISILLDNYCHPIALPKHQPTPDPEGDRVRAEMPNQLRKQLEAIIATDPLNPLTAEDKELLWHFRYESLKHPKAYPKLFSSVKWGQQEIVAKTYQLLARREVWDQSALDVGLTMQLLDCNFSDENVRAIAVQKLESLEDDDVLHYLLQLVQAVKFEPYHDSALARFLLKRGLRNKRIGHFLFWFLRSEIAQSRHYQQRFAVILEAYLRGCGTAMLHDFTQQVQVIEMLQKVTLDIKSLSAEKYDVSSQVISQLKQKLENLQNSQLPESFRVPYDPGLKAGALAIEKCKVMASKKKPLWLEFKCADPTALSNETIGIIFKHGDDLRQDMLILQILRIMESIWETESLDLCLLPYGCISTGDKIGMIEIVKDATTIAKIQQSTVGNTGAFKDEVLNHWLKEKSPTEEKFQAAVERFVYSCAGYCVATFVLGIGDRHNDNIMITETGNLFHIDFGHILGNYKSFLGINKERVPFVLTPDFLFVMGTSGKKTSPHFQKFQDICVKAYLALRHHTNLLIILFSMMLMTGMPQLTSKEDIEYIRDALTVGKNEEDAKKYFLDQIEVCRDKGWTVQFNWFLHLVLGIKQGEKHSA
T3 sequence (P42336 whole entry): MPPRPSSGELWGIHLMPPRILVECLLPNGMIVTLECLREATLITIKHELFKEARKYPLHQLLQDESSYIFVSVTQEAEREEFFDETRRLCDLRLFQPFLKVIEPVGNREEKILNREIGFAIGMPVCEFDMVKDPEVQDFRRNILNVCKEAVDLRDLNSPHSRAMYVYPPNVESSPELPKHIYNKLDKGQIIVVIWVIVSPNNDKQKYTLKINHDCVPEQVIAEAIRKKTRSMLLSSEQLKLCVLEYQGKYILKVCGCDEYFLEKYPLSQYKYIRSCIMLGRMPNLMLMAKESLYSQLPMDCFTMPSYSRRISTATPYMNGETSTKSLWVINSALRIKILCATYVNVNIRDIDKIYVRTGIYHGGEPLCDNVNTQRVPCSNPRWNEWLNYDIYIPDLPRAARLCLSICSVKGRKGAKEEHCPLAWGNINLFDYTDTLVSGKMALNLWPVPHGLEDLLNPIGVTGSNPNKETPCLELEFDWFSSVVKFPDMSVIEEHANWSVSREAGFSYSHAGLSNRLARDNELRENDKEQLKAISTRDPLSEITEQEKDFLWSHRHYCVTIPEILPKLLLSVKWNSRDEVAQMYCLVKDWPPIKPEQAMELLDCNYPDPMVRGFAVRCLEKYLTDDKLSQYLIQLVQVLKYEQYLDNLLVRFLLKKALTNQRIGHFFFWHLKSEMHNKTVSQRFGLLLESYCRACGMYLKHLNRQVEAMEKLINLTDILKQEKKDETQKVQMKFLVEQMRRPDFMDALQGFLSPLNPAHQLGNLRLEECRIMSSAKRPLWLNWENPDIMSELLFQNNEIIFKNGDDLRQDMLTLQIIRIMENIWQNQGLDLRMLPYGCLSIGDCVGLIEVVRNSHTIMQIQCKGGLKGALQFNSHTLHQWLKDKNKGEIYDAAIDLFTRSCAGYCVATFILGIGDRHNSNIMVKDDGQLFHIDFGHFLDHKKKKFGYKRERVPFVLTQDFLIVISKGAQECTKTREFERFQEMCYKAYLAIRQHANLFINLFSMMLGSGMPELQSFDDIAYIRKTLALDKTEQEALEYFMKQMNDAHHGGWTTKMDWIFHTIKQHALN
T3 sequence (P27986 whole entry partner): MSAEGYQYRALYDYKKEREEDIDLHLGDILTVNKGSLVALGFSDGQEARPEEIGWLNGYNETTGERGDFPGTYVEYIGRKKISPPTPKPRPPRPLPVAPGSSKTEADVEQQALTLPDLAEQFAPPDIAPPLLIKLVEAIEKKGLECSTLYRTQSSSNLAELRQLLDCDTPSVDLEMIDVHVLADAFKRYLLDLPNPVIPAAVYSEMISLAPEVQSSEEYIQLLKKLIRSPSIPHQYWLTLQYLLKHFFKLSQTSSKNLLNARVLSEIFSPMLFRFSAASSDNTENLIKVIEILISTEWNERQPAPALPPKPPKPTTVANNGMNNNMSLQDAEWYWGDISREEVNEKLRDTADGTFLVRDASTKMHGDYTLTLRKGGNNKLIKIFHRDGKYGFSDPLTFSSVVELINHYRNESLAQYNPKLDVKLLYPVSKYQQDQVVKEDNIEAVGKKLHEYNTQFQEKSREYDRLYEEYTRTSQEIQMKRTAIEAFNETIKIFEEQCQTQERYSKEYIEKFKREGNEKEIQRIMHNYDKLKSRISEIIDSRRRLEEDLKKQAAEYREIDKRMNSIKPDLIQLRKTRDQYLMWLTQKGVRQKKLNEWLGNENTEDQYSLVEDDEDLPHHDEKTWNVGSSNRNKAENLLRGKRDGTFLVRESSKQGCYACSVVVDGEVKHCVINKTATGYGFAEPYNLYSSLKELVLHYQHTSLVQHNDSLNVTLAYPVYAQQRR
T1 sequence (P42338 whole entry): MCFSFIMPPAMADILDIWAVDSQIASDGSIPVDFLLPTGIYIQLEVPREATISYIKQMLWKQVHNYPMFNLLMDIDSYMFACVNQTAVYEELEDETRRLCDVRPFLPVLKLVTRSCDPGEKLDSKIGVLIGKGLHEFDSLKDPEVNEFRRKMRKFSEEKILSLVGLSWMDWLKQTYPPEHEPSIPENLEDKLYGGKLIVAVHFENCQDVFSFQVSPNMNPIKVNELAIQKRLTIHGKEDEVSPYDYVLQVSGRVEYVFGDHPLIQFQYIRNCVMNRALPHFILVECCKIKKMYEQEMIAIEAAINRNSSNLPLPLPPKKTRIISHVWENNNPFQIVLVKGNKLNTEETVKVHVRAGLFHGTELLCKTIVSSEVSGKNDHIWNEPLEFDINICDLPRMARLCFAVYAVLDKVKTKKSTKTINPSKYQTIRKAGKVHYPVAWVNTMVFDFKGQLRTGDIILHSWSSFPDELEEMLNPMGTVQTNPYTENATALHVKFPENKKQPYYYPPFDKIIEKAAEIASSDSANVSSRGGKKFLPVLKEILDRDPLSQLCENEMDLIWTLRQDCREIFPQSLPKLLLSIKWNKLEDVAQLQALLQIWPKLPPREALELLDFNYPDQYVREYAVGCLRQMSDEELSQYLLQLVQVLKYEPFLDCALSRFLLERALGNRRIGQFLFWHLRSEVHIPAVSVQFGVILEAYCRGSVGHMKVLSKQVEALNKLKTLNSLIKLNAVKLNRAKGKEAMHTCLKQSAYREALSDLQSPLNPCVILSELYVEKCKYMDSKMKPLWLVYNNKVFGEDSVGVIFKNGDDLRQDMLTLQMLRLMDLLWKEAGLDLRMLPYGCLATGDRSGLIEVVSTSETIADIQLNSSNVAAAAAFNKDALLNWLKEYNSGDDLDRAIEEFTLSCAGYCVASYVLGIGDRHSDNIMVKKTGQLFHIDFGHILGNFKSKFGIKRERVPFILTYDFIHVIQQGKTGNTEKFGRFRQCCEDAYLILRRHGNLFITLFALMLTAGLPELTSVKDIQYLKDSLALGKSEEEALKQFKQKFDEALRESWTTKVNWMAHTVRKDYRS
T1 sequence (P27986 whole entry partner): as the sequence (P27986 whole entry partner) above
T4 sequence (O00329 whole entry S253N): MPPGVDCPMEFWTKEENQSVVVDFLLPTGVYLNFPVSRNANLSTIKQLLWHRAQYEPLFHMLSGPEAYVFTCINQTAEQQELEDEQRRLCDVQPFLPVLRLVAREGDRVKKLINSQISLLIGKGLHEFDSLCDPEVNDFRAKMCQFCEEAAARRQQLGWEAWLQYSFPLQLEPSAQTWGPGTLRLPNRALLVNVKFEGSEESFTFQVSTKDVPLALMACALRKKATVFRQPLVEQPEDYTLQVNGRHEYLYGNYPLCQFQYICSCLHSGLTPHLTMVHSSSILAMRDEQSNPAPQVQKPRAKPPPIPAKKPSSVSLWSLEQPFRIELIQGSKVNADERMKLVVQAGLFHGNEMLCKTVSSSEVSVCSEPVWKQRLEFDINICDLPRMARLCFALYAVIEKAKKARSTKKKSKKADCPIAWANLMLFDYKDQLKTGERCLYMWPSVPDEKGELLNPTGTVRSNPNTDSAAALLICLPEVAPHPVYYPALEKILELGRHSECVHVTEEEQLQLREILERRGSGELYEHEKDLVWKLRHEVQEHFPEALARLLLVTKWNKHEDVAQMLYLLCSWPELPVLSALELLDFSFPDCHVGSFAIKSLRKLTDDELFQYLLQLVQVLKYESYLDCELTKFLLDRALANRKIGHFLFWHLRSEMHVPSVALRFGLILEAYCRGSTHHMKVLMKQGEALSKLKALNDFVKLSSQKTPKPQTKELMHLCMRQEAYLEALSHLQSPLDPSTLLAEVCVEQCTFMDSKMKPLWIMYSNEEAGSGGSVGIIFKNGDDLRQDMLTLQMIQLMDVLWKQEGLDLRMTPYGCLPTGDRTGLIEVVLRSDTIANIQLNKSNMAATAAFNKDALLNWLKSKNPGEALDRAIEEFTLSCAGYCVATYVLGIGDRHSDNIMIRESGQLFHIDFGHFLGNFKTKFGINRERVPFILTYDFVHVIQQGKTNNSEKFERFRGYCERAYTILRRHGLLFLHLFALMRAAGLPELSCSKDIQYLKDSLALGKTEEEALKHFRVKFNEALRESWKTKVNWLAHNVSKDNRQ
T4 sequence (P27986 whole entry partner): as the sequence (P27986 whole entry partner) above

SMILES | Beta/Delta Ratio (PI3Kβ [1]) | IC50 (PI3Kβ [1]; Example 2 assay conditions, limit of 100 μM compound, read-out: IC50, β isoform of PI3K (FIG. 1)) | remaining activity at 100 µM (PI3Kβ [1]) | IC50 (PI3Kγ [2]) | Gamma/Delta Ratio (PI3Kγ [2]) | Alpha/Delta Ratio (PI3Kα) | Beta/Delta Ratio (PI3Kβ [3]) | Gamma/Delta Ratio (PI3Kγ [4]) | IC50 (PI3Kγ [4]) | IC50 (human neutrophils; Neutrophil, 1.5 h, 1 μM fMLP, 90 min, FIG. 4, read-out: Concentration of half-maximal inhibition of fMLP-induced elastase exocytosis) | EC50 (human neutrophils) | EC50 (T cell proliferation) | IC50 (PI3Kδ [5]) | IC50 (PI3Kδ [6]; [7]) | IC50 (PI3Kδ [6]; Example 2 assay conditions, read-out: IC50, δ isoform of PI3K (FIG. 1))
O=c1c2ccccc2nc(CSc2ncnc3[nH]cnc23)n1-c1ccccc1Cl [Compound D-000, 3-(2-chlorophenyl)-2-(9H-purin-6-ylsulfanylmethyl)-3H-quinazolin-4-one] | >302 | > 100000 nM | 74% | 7700 nM | 23 | 91 | 84 | 18 | 35000 ± 35000 nM | 2000 to 3000 nM | 2200 ± 2000 nM | 5500 ± 4000 nM | 2000 ± 1000 nM | 330 nM | ~300 nM
O=c1c2c(F)cccc2nc(CSc2ncnc3[nH]cnc23)n1-c1ccccc1Cl [Compound D-015, 3-(2-Chlorophenyl)-5-fluoro-2-(9H-purin-6-ylsulfanylmethyl)-3H-quinazolin-4-one] | >480 | – | 69% | 3600 nM | 17 | 180 | 154 | 160 | – | – | 1300 ± 400 nM | 1800 nM | 1100 ± 500 nM | 210 nM | –
O=c1c2c(Cl)cccc2nc(CSc2ncnc3[nH]cnc23)n1-c1ccccc1Cl [Compound D-025, 5-Chloro-3-(2-chlorophenyl)-2-(9H-purin-6-ylsulfanylmethyl)-3H-quinazolin-4-one] | >909 | – | 61% | 1500 nM | 14 | 556 | – | 24 | 7800 ± 3000 nM | – | 300 ± 200 nM | 4400 ± 600 nM | 320 ± 300 nM | 110 nM | –
O=c1c2ccccc2nc(CSc2ncnc3[nH]ncc23)n1-c1ccccc1Cl [Compound D-999, 3-(2-Chlorophenyl)-2-(1H-pyrazolo[3,4-d]pyrimidin-4-ylsulfanylmethyl)-3H-quinazolin-4-one, reference compound] | 2.1 | – | 71% | 60000 nM | 1.3 | 2 | 2 | 1 | 90000 nM | – | > 20000 nM | 5900 nM | 75000 nM | 47000 nM | –

— patent US20200061062A1, “INHIBITORS OF HUMAN PHOSPHATIDYLINOSITOL 3-KINASE DELTA” (ICOS Corporation, priority 2000, published 2020)
